According to ChEMBL document CHEMBL1201862, “PubChem BioAssay data set” (2004):
Active and inactive are the calls of the source.

How the values were obtained:
[1] = target: T1, Corticotropin-releasing factor receptor 2/Corticotropin-releasing factor-binding protein (Homo sapiens, UniProt P24387+Q13324); test: Dose Response confirmation of uHTS hits for small molecule antagonists of the CRF-binding protein and CRF-R2 receptor complex.; format: functional; details: read-out: IC50_Mean
T1 sequence (Q13324 whole entry): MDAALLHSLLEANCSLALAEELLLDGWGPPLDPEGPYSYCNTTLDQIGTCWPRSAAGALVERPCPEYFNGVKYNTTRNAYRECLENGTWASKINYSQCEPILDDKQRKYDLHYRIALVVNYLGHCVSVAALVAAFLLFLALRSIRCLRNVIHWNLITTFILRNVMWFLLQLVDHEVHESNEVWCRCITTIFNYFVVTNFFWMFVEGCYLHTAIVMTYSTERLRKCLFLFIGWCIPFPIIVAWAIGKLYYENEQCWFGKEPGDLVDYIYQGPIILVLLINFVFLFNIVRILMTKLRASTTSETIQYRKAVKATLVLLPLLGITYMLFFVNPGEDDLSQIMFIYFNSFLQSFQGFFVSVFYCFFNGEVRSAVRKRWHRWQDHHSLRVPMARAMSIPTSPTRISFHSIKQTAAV
T1 sequence (P24387 whole entry): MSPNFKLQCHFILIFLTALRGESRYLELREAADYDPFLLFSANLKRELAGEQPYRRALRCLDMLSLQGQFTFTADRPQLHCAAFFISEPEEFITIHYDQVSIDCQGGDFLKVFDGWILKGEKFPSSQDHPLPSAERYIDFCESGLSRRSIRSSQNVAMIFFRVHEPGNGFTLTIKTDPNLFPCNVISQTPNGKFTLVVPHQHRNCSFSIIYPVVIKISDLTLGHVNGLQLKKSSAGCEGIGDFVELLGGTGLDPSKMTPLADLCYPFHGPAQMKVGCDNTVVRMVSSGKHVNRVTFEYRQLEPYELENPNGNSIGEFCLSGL

[2] = target: T1, Corticotropin-releasing factor receptor 2/Corticotropin-releasing factor-binding protein; test: activators of CRF receptor 2 with binding protein – uHTS hits, confirmation (AID 602473); format: functional; details: read-out: EC50_Mean
[3] = NIH3T3 cell viability loss – ATP luminescence, mouse fibroblasts, counter-screen, dose response (AID 2010); format: functional, cell-based;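 also: cells exposed to compound for about 90 hours before reading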
[4] = Trypanosoma cruzi growth suppression in host cells – NIH3T3 host cells, beta-gal luminescence, confirmation (AID 2044); format: functional, cell-based;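 also: intracellular parasites grown in NIH/3T3 mouse fibroblasts as host cells; luminescent beta-galactosidase reporter signal from transgenic T. cruzi replicating inside host cells; inhibitors lower the luminescence signal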
[5] = viability loss in THP-1 monocytes – THP-1 cells, cytotoxicity control for Vif-APOBEC3G degradation inhibitor project, dose response (AID 1117359); format: functional; details: THP-1
[6] = target: T2, Short transient receptor potential channel 4 (Mus musculus, UniProt Q9QUQ5); test: block of DAMGO-driven TRPC4 calcium entry – cell-based, HEK293 TRPC4/mu-opioid, Fluo-4 calcium, dose response (AID 434942); format: functional;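 also: potency of inhibitors blocking the TRPC4 calcium response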
T2 sequence (Q9QUQ5 whole entry): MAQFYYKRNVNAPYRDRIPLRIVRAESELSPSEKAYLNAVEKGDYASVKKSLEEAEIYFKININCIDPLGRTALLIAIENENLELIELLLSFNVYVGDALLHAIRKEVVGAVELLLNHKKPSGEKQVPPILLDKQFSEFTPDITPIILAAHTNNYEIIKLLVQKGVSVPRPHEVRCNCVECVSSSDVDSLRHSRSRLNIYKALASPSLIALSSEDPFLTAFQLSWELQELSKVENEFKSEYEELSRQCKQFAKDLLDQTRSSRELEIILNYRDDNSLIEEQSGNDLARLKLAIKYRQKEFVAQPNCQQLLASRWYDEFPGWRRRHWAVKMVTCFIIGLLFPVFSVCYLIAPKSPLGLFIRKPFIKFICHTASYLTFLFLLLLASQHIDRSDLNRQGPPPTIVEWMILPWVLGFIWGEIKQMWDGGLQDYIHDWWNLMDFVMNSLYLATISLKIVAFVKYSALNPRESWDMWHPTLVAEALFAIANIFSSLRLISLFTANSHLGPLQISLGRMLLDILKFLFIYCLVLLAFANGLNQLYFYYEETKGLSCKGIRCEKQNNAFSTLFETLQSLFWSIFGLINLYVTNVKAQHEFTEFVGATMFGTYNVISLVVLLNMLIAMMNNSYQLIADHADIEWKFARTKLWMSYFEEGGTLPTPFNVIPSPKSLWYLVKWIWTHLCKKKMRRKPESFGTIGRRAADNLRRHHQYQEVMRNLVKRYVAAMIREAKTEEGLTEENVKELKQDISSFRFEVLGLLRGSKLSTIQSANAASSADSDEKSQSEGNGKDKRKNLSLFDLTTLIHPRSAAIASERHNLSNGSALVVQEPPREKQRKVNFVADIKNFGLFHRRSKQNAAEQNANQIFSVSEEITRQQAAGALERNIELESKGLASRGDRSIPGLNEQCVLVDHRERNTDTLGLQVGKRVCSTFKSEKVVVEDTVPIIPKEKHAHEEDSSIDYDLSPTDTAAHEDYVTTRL

HEK293 [7] = test: cells; format: functional, cell-based; details: Homo sapiens
HEK293 [8] = test: cells; format: functional, cell-based; details: Homo sapiens; remark: listed apart in the source
HEK293 [9] = test: inhibition of NOD1-driven NF-kB reporter – cell-based, luminescence, uHTS, primary screen (AID 1578); format: functional; details: Homo sapiens
HEK293 [10] = test: cells; format: functional, cell-based; details: Homo sapiens; remark: listed apart in the source
HEK293 [11] = test: NOD2 signaling inhibitors in MDP-stimulated cells, cell-based, uHTS, luminescence (AID 2001); format: functional; details: Homo sapiens
[12] = target: Nucleotide-binding oligomerization domain-containing protein 2 (Homo sapiens, UniProt Q9HC29); test: inhibition of NOD2-driven NF-kB reporter – cell-based, luminescence, uHTS, HEK293 (AID 1566); format: functional
Sequence of Nucleotide-binding oligomerization domain-containing protein 2 (Q9HC29 whole entry, the tested form may be a part): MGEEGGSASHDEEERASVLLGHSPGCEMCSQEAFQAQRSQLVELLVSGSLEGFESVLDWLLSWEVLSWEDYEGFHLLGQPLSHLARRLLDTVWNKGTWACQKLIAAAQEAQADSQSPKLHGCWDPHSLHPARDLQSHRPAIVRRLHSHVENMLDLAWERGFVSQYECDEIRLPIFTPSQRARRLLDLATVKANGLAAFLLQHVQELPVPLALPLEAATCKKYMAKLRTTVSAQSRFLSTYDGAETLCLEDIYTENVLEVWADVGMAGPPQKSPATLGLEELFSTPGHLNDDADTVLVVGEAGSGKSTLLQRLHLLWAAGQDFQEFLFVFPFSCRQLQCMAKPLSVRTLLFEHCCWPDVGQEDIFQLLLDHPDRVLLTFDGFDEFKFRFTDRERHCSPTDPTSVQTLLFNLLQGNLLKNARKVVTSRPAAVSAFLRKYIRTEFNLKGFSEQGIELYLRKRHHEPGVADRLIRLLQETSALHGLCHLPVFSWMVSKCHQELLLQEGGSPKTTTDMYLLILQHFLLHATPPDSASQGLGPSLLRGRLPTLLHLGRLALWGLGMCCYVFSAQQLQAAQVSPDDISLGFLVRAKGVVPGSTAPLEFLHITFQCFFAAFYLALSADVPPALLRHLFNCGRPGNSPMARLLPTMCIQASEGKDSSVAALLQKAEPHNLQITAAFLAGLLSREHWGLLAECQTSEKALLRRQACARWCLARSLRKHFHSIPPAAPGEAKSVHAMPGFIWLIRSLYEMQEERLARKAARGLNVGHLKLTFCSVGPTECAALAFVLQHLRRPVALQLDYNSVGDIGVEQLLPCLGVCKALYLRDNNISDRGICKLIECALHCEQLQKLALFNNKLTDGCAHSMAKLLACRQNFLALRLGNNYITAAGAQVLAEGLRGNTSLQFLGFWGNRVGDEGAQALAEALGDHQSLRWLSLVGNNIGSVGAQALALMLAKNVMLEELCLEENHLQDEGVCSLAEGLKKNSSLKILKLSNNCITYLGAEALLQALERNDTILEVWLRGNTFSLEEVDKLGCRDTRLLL

Estrogen receptor = target: T3, Estrogen receptor (Homo sapiens, UniProt P03372);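 also: potency for inhibiting coactivator peptide recruitment to the receptor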
T3 sequence (P03372 whole entry): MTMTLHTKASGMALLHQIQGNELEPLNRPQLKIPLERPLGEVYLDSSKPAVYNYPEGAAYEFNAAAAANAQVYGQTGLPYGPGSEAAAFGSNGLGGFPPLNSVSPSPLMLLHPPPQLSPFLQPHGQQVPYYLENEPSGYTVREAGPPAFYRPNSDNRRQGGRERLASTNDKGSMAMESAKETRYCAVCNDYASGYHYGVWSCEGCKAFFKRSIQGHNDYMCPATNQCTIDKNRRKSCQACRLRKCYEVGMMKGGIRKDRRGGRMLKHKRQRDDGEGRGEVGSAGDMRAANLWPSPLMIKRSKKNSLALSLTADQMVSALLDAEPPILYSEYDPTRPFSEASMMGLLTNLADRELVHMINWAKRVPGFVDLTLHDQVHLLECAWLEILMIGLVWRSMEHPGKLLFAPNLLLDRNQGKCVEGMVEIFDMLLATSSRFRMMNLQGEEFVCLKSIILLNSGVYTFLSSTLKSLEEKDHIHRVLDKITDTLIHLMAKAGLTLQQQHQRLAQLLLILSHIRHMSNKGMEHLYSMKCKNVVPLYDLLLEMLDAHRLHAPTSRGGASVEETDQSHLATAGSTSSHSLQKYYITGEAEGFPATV

cells = format: functional
[13] = THP-1 cell cytotoxicity, dose response, cytotoxicity control for non-replicating M. tuberculosis project (AID 489025); format: functional
[14] = Vero E6 cell cytotoxicity, dose response, cytotoxicity control for non-replicating M. tuberculosis project, secondary assay (AID 492998); format: functional, VeroE6; details: Vero C1008
Cytochrome P450 2D6 = Cytochrome P450 2D6 (Homo sapiens, UniProt P10635);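 also: CYP2D6 member of a cytochrome P450 panel assay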
Sequence of Cytochrome P450 2D6 (P10635 whole entry): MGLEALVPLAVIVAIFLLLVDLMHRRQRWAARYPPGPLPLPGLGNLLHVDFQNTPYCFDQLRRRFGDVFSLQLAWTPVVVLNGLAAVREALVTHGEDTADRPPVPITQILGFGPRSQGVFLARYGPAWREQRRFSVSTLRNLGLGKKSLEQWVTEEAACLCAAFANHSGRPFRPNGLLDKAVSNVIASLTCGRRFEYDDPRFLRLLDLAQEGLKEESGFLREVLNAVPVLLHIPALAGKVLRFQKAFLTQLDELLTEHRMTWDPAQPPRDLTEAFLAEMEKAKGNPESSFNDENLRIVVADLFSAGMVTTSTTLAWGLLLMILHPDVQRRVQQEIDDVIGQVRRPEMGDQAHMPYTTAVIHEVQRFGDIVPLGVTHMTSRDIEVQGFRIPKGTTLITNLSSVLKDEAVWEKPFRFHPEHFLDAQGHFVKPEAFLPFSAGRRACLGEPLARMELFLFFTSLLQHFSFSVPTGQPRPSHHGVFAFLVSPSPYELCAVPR

Cytochrome P450 2C9 = Cytochrome P450 2C9 (Homo sapiens, UniProt P11712)
Sequence of Cytochrome P450 2C9 (P11712 whole entry): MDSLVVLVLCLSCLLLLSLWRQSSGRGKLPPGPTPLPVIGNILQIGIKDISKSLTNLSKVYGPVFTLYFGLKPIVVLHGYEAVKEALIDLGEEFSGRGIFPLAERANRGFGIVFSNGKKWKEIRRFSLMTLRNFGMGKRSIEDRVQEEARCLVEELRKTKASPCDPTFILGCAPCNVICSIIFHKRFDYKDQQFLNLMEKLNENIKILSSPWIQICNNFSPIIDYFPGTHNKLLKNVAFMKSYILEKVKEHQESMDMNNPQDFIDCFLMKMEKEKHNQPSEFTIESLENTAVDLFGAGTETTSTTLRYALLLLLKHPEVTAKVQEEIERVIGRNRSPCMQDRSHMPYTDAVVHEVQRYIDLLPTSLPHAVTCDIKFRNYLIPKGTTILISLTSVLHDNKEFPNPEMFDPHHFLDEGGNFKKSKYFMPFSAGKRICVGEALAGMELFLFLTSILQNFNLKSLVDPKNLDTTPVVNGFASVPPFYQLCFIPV

[15] = target: T4, Rac GTPase-activating protein 1 (Homo sapiens, UniProt Q9H0H5); test: blockers of MgcRacGAP-driven Rac1 GTP hydrolysis – biochemical, ADP Hunter fluorescence, primary and confirmatory, confirmation (AID 624330); format: functional
T4 sequence (Q9H0H5 whole entry): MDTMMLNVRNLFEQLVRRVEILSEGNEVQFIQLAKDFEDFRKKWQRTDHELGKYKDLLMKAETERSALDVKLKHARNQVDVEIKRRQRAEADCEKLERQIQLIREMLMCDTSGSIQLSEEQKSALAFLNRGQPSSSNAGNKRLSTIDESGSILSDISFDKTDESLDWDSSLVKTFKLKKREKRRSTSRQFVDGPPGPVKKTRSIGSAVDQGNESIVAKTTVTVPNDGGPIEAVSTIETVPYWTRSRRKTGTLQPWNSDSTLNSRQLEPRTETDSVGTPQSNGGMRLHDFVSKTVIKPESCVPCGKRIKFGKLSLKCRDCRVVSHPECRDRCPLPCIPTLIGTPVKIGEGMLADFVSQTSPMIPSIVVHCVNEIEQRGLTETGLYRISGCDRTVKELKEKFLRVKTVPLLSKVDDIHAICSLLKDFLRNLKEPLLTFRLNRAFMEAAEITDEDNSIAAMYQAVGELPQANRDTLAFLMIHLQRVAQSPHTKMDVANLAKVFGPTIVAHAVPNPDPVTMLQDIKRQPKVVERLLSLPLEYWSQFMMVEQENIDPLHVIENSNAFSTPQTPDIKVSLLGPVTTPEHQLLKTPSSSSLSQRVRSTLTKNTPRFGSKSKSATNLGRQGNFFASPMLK

## CCOC(=O)c1c(C)[nH]c(C(=O)OCC(=O)Nc2sc(C(=O)N(C)C)c(C)c2C(=O)OCC)c1C
[1]
  IC50: > 47.1 µM (inactive)
[2]
  EC50: > 53 µM (inactive)
[3]
  EC50: > 60 µM (not active)
[4]
  EC50: 0.36 µM (active)
[5]
  CC50: > 40 µM (active)

## Cc1cccc(CCN(C(=O)c2snc(C(N)=O)c2N)C(C(=O)NCC2CCCO2)c2ccc(F)cc2)c1 (stereo not given)
[6]
  EC50: 2.66 µM (active)

## Cc1cc(C)cc(OCC(=O)Nc2nc3ccc([N+](=O)[O-])cc3s2)c1
HEK293 [7]
  IC50: > 20 µM (inactive)
HEK293 [8]
  IC50: 1.83 µM (active)
HEK293 [9]
  EC50: 4.56 µM (active)
HEK293 [10]
  IC50: > 20 µM (inactive)
HEK293 [11]
  IC50: 8.1 µM (active)
[12]
  EC50: 7.65 µM (active)

## O=c1[nH]c2cc3c(cc2cc1CN(Cc1cccs1)Cc1nnnn1Cc1ccco1)OCCO3
Estrogen receptor
  IC50: > 50 µM (not active)

## CC(=O)CC1(OC(C)=O)C(=O)N(C)c2ccccc21 (stereo not given)
cells
  IC50: 14.4 µM (active)
[13]
  CC50: 35.5 µM (active)
[14]
  CC50: 15.5 µM (active)

## CC1CCc2sc3ncnc(N4CCOCC4)c3c2C1 (stereo not given)
HEK293 [7]
  IC50: > 20 µM (inactive)
HEK293 [8]
  IC50: 3.54 µM (active)
HEK293 [9]
  EC50: 6.02 µM (active)
HEK293 [10]
  IC50: > 20 µM (inactive)
HEK293 [11]
  IC50: 4.85 µM (active)
[12]
  EC50: 8.76 µM (active)

## CCOc1cc(/C=C2\C(=N)N3N=CSC3=NC2=O)ccc1OS(=O)(=O)c1ccccc1
[6]
  EC50: 4.73 µM (active)

## Cc1ccccc1C(=O)NC(C)c1ccc2c(c1)CCCC2 (stereo not given)
Cytochrome P450 2D6
  AC50: 15.8 µM (inconclusive)
Cytochrome P450 2C9
  AC50: inconclusive

## C=CCc1ccc(OCCOCCNCCCC)c(OC)c1
[15]
  IC50: 132 µM (active)
[5]
  CC50: > 40 µM (active)

## Cc1ccc(C)c(S(=O)(=O)NCc2ccc(C(=O)N3CCC(Cc4ccccc4)CC3)cc2)c1
Cytochrome P450 2C9
  AC50: inconclusive
[3]
  EC50: > 60 µM (not active)
[4]
  EC50: 2.66 µM (active)
